Literature values, collected in patent US20220193200A1, “TANNIC ACID/FE (III) NANOPARTICLES AND METHODS OF DRUG DELIVERY” (The Johns Hopkins University, priority 2019, published 2022).

pKa: around 6
SMILES: O=C(OC[C@H]1O[C@@H](OC(=O)c2cc(O)c(O)c(OC(=O)c3cc(O)c(O)c(O)c3)c2)[C@H](OC(=O)c2cc(O)c(O)c(OC(=O)c3cc(O)c(O)c(O)c3)c2)[C@@H](OC(=O)c2cc(O)c(O)c(OC(=O)c3cc(O)c(O)c(O)c3)c2)[C@@H]1OC(=O)c1cc(O)c(O)c(OC(=O)c2cc(O)c(O)c(O)c2)c1)c1cc(O)c(O)c(OC(=O)c2cc(O)c(O)c(O)c2)c1 [tannic acid, Tannic acid]
